# Measured values published in US6811970B2, “Assay for identifying inhibitors of HIV RT dimerization” (priority 2001, dated 2004).
# pIC50: −log10 of the molar value.
# How the values were obtained:
# HIV-1 RT = HIV-1 RT (Human immunodeficiency virus type 1 group M subtype B, UniProt P04585); settings: Tachedjian et al., 2001, PNAS, 7188-7193; cited from earlier work
# [1] = target: HIV-1 RT p66/p51 heterodimer (Human immunodeficiency virus type 1 group M subtype B, UniProt P04585, C625S/C867S/P588C); assay: TRF microplate assay of p66/p51 RT heterodimer formation; settings: compound at 10 μM; dimer formation 6 h; urea diluted 3.5 M to 0.35 M
# Method: The general principle of the assay involves mixing of His6x-p51 with fluorophore-labeled p66 RT in solution, with subsequent solid-phase capture of resulting His6x-p51/fluorophore-labeled p66 RT heterodimer on Ni^2+-NTA microplates. After washing to remove unbound material, the amount of microplate-associated fluorescence is measured in an appropriate fluorescence plate reader.
# In a total volume of 20 μl, mix 100 pmol of purified His6x-p51 RT subunit and 200 pmol of Eu-N1-iodoacetamido chelate labeled p66 RT subunit (i.e., 100 pmol RT p66/p66 homodimer) with urea (prepared in 25 mM Tris-HCl pH 7.5, 20° C., containing 100 mM MgCl2) to provide a final concentration of 3.5 M urea. Incubate this mixture for 1 h at room temperature.
# Dilute this solution into 200 μL of a solution of the compound of interest at 10 μM (in 25 mM Tris-HCl pH 7.5, 20° C., containing 50 mM Na2SO4) contained in a well of a 96-well Ni-NTA HiSorb Plate.
# The dilution step provides a 10-fold dilution to reduce the urea concentration from 3.5M to 0.35M, thereby allowing formation of the RT p66/p51 heterodimer. Dimer formation is allowed to proceed for 6 h, then the plates are washed 3× with Delfia wash buffer containing 200 μM DTPA. After washing, 200 μL of the Delfia enhancement solution is added to each well, followed by incubation at room temperature for 30 minutes.
# [2] = target: T1, Eu^3+-labeled P2C/C38S/C280S p66/p66 RT (Human immunodeficiency virus type 1 group M subtype B, UniProt P04585, C625S/C867S/P588C); assay: Inhibition of Eu3+-labeled P2C/C38S/C280S p66/p66 RT by HIV RT inhibitors; format: biochemical, HIV-1; settings: P2C/C38S/C280S p66/p66 RT alkylated with Eu-N1-iodoacetamido chelate
# T1 construct: made in house; host or cells: E. coli JM109 (pKK-RT66-P2C), then chemical alkylation
# Method: Purified P2C/C38S/C280S p66/p66 RT was concentrated to approximately 20 μM (˜2.5 mg/ml) in 50 mM Tris-HCl buffer (pH 7.9 at 20° C.) containing 100 mM NaCl and 1 mM TCEP-HCl (Tris(2-carboxyethyl)phosphine hydrochloride (Pierce)) at room temperature. An aliquot of Eu-N1-iodoacetamido chelate protein-modification reagent (prepared as a 5 mM stock solution in DMSO) was added to provide an approximately 20-fold molar excess relative to the p66 subunit concentration. The alkylation reaction was allowed to proceed for up to 6 hours at room temperature. Alternatively, the reaction may be carried out overnight at 4° C. Upon completion of the reaction, an excess of DTT was added to consume unreacted Eu-N 1-iodoacetamido chelate. The alkylated p66/p66 RT was separated from the DTT-reagent conjugate by two passages through a NAPT™ 25 column equilibrated with a 25 mM Tris-HCl buffer (pH 7.5, 20° C.) containing 60 mM MgCl2 and 50% glycerol. The stoichiometry of labeling was generally found to be between 0.7-1 mol of Eu-N1-iodoacetamide per mol of p66 RT subunit (i.e., 1.5-2 mol/mol p66/p66 RT homodimer).
# WT p66/p66 RT = target: T2, WT p66/p66 RT (Human immunodeficiency virus type 1 group M subtype B, UniProt P04585); assay: Inhibition of WT p66/p66 RT (data not shown); format: biochemical, HIV-1
# T2 construct: IPTG-dependent expression of the non-HIS-tagged 66 kDa RT subunit; made in house; host or cells: E. coli JM109 (pKK-RT66WT)
# Text: The P2C/C38S/C280S p66/p66 RT chemically alkylated with the Eu-N1-iodoacetamido chelate retains approximately 80% of the RDDP activity of the unmodified protein (Table 1). […] Thus, the genetic and chemical manipulations of RT required to prepare reagents for the dimerization assay appear to have little effect on the response of the enzyme within the parameters of the assay protocol.
# [3] = target: T3, unlabeled P2C/C38S/C280S p66/p66 RT (Human immunodeficiency virus type 1 group M subtype B, UniProt P04585, C625S/C867S/P588C); assay: Inhibition of unlabeled P2C/C38S/C280S p66/p66 RT by HIV RT inhibitors; format: biochemical, HIV-1
# T3 construct: made in house; host or cells: E. coli JM109 (pKK-RT66-P2C)
smiles,measurement,setting,value
Cc1ccnc2c1NC(=O)c1cccnc1N2C1CC1 [Nevirapine],Effect on dimerization of the HIV-1 RT as reported,HIV-1 RT,chemical enhancers of dimerization
Cc1cn([C@@H]2O[C@H](CO[Si](C)(C)C(C)(C)C)[C@@]3(OS(=O)(=O)C=C3N)[C@H]2O[Si](C)(C)C(C)(C)C)c(=O)n(C)c1=O [TSAOm^3T],"TRF signal relative to control (RT dimerization, FIG. 5B)",[1],decreases the signal
CCn1c(=O)c(C)cn([C@@H]2O[C@H](CO[Si](C)(C)C(C)(C)C)C3(OS(=O)(=O)C=C3N)[C@H]2O[Si](C)(C)C(C)(C)C)c1=O (some centres unmarked) [TSAOe3T],pIC50,[2],5.52
same,Sensitivity of WT p66/p66 RT to inhibition compared with unmodified P2C/C38S/C280S p66/p66 mutant,WT p66/p66 RT,equally sensitive
same,pIC50,[3],5.52
